# Reference: US6337336B1, “Azaindole derivatives for the treatment of depression” (American Home Products Corporation, priority 1999, dated 2002)
# Where a name gives a salt, the structure may show the parent alone.
# Columns and labels:
# serotonin transporter = target: T1, serotonin transporter (Rattus norvegicus, UniProt P31652); assay: serotonin transporter affinity, 3H-paroxetine binding in rat frontal cortical membranes; settings: 3H-paroxetine 0.1 nM, read-out: ST (Ki)
# T1 construct: frontal cortical membranes prepared from male Sprague-Dawley rats; from tissue; host or cells: rat frontal cortex membranes (male Sprague-Dawley)
# Description: A protocol similar to that used by Cheetham et al., Neuropharmacol., 32:737 (1993) was used to determine the affinity of compounds for the serotonin transporter. Briefly, frontal cortical membranes prepared from male Sprague-Dawley rats were incubated with ^3H-paroxetine (0.1 nM) for 60 min at 25° C. All tubes also contained either vehicle, test compound (one to eight concentrations), or a saturating concentration of fluoxetine (10 μM) to define […]. All reactions were terminated by the addition of ice cold Tris buffer followed by rapid filtration using a Tom Tech filtration device to separate bound from free ^3H-paroxetine. Bound radioactivity was quantitated using a Wallac 1205 Beta Plate® counter. Nonlinear regression analysis was used to determine IC50 values which were converted to Ki values using the method set forth in Cheng and Prusoff, Biochem. Pharmacol., 22:3099 (1973) (Ki=IC50/((Radioligand conc.)/(1+KD)).
# human 5-HT1A receptor [1] = target: T2, human 5-HT1A receptor (Homo sapiens, UniProt P08908); assay: human 5-HT1A receptor binding with [3H]8-OH-DPAT in CHO cell membranes
# T2 sequence (P08908 1-422): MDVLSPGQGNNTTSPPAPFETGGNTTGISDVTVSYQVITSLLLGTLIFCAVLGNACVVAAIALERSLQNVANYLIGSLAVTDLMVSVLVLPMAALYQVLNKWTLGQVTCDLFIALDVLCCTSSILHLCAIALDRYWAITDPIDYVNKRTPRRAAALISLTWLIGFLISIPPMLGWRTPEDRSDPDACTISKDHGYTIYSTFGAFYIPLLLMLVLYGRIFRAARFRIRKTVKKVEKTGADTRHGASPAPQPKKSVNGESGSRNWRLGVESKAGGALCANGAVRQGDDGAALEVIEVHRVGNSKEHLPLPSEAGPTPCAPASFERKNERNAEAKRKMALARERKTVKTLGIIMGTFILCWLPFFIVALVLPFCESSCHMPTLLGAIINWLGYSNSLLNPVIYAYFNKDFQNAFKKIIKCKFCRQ
# 5-HT1A cloned receptor = target: T3, 5-HT1A cloned receptor (Homo sapiens, UniProt P08908); assay: [35S]-GTPγS binding assay; assay type: biochemical; settings: relative to maximum agonist response defined by excess 8-OH-DPAT
# T3 construct: expressed in transfected cells
# T3 sequence (P08908 1-422): T2 sequence (P08908 1-422)
# Description: The [^35S]-GTPγS binding assay was similar to that used by Lazareno and Birdsall, Br. J. Pharmacol. 109:1120 (1993). Briefly, 5-HT1A cloned receptor membrane fragments (as used for 5-HT1A receptor binding assays) were stored at −70° C. When needed, membranes were rapidly thawed, centrifuged at 40,000×g for 10 minutes and resuspended at 4° C. for 10 minutes in assay buffer (25 mM HEPES, 3 mM MgCl2, 100 mM NaCl, 1 mM EDTA, 10 uM GDP, […], pH 8.0). These membranes were then incubated for 30 min at 30° C. with [^35S]GTPgS (1 nM) in the presence of vehicle, test compound (one to eight concentrations), or excess 8-OH-DPAT to define maximum agonist response. All reactions were terminated by the addition of ice cold Tris buffer followed by rapid filtration using a Tom Tech® filtration device to separate bound from free [^35S]GTPgS. Agonists produced an increase in the amount of [^35S]GTPgS bound whereas antagonists produced no increase in binding. Bound radioactivity was counted and analyzed as above.
# human 5-HT1A receptor [2] = target: T2, human 5-HT1A receptor; assay: forskolin-stimulated cAMP formation in 5-HT1A.CHO cells (cAMP SPA assay); assay type: cell-based; set-up: expressed in transfected cells; settings: forskolin 1 uM
# Description: The following assays were performed by incubating the cells with DMEM containing 25 mM HEPES, 5 mM theophylline and 10 μM pargyline for a period of 20 minutes at 37° C. Functional activity was assessed by treating the cells with forskolin (1 uM final concentration) followed immediately by test compound (6 concentrations) for an additional 10 min at 37° C. In separate experiments, 6 concentrations of antagonist were preincubated for 20 min prior to the addition of 10 nM 8-OH-DPAT and forskolin. The reaction was terminated by removal of the media and addition of 0.5 ml ice cold assay buffer. Plates were stored at −20° C. prior to assessment of cAMP formation by a cAMP SPA assay (Amersham).
# T1 sequence (P31652 whole entry): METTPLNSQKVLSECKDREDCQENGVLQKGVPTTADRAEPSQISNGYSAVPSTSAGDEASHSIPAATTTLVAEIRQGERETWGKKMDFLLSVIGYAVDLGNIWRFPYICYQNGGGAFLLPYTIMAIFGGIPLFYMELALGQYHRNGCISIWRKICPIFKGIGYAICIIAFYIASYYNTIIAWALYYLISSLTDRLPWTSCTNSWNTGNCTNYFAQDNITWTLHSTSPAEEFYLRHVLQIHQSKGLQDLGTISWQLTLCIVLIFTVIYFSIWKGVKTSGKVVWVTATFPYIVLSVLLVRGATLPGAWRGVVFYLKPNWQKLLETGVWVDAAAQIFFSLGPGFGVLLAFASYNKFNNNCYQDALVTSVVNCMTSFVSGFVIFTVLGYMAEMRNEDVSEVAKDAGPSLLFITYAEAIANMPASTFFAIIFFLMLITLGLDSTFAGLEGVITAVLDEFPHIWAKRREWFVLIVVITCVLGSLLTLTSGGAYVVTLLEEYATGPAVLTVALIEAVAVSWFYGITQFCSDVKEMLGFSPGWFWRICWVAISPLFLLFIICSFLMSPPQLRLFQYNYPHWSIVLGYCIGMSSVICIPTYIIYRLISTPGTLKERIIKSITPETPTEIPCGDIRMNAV
SMILES,melting point [°C],Ki (serotonin transporter) [µM],Ki (human 5-HT1A receptor [1]) [µM],Emax (5-HT1A cloned receptor) [%],Emax (human 5-HT1A receptor [2]) [%]
"C1=C(c2c[nH]c3ncccc23)CCN(CCOc2cccc3c2OCCO3)C1 (as salt: oxalate) [Example 1, 3-{1-[2-(2,3-Dihydro-benzo[1,4]dioxin-5-yloxy)-ethyl]-1,2,3,6-tetrahydro-pyridin-4-yl}-1H-pyrrolo[2,3-b]pyridine]",164 to 167,–,–,–,–
"C1=C(c2c[nH]c3ncccc23)CCN(CCOc2cccc3[nH]ccc23)C1 (as salt: oxalate) [Example 2, 3-{1-[2-(1H-Indol-4-yloxy)-ethyl]-1,2,3,6-tetrahydro-pyridin-4-yl}-1H-pyrrolo[2,3-b]pyridine]",106 to 109,–,–,–,–
"C1=C(c2c[nH]c3ncccc23)CCN(CCOc2cccc3ncccc23)C1 (as salt: oxalate) [Example 3, 5-{2-[4-(1H-Pyrrolo[2,3-b]pyridin-3-yl)-3,6-dihydro-2H-pyridin-1-yl]-ethoxy}-quinoline]",202 to 205,–,–,–,–
"C1=C(c2c[nH]c3ncccc23)CCN(CCOc2cccc3c2OCCO3)C1 [Example 1, 3-{1-[2-(2,3-Dihydro-benzo[1,4]dioxin-5-yloxy)-ethyl]-1,2,3,6-tetrahydro-pyridin-4-yl}-1H-pyrrolo[2,3-b]pyridine]",–,0.018,0.0439,30,–
"C1=C(c2c[nH]c3ncccc23)CCN(CCOc2cccc3[nH]ccc23)C1 [Example 2, 3-{1-[2-(1H-Indol-4-yloxy)-ethyl]-1,2,3,6-tetrahydro-pyridin-4-yl}-1H-pyrrolo[2,3-b]pyridine]",–,0.00146,0.0109,9,0
"C1=C(c2c[nH]c3ncccc23)CCN(CCOc2cccc3ncccc23)C1 [Example 3, 5-{2-[4-(1H-Pyrrolo[2,3-b]pyridin-3-yl)-3,6-dihydro-2H-pyridin-1-yl]-ethoxy}-quinoline]",–,0.00689,0.0716,0,0
